Usually pKa stands for the pH at which an ionisable group is half protonated. Regarding `CC#CC#CCC(=O)O`, the pKa (acidic group) came out at 3.23.

Compound `C=CCOc1ccc(C(=O)O)cc1` gave a pKa (acidic group) of 4.45. As for `Nc1ccc(S(=O)(=O)Nc2nccc(N)n2)cc1`, the pKa (acidic group) came to 9.44.

For the compound `Nc1c(C(=O)O)[nH+]cn1[C@H]1O[C@@H](CO)[C@H](O)[C@@H]1O`, where the note is “acidic group”, the pKa was 2.9. `O=C(CC(=O)C(F)(F)F)c1cccs1`: the pKa (acidic group) was 6.31. Turning to `O[n+]1c2ccccc2nc2ccccc21`, the pKa (acidic group) worked out at 1.12.

Turning to `Oc1cccc2scnc12`, the pKa worked out at 8.77 (acidic group) and 1.25 (basic group). The compound `CCc1cccc(/N=N/c2ccc(N(C)C)cc2)c1` returned a pKa (basic group) of 2.16. For `Cc1cccc(C2NCCS2)c1` (centres undefined), the pKa (basic group) was determined as 5.26.

Turning to `COc1cccc(OC)c1-c1nc2cnccc2[nH]1`, the pKa runs as follows: (acidic group) 10.9; (basic group) 6.34. For the setting “basic group”, `[S-]c1ccccn1` gave a pKa of 9.89. For `C=CCC1(C2=CCCCC2)C(=O)NC(=S)NC1=O`, where the note is “acidic group”, the pKa was found to be 7.09.

Under “basic group”, `CCCN(CCO)CC(O)CC` (centres undefined) gave a pKa of 9. Consider `Nc1c2ccccc2[nH+]c2ccc(O)cc12`, for which, under “acidic group”, the pKa was 7.71.

For the compound `N#CCC(C(=O)O)c1ccccc1` (centres undefined), for the setting “acidic group”, the pKa stood at 3.44. In the case of `O=Cc1cc(Br)ccc1O`, the pKa (acidic group) was determined as 7.4. `COc1ccc(NC(=S)c2ccc(OC)cc2)cc1`: the pKa (acidic group) worked out at 11.8. `O=C(O)C1c2ccccc2Oc2ccccc21`: the pKa (acidic group) turned out to be 3.89. For the compound `C[NH+]1C[C@@H](C(=O)O)C[C@@]2(O)c3cccc4[nH]cc(c34)C[C@H]12`, the pKa (acidic group) worked out at 3.38. Consider `NC(Cc1c[nH]c(=S)[nH]1)C(=O)[O-]` (centres undefined), for which the pKa is, setting by setting: (acidic group) 11.4; (basic group) 8.47.

As for `[NH3+]c1ccc(O[C@H]2O[C@@H](C(=O)O)[C@H](O)[C@@H](O)[C@@H]2O)cc1`, the pKa (acidic group) was 3.1. Take `O=C1CCC(O)=C1O`: the pKa (acidic group) was 4.8. Compound `CCCCCCCCCCN` gave a pKa (basic group) of 10.6. On to `Cc1cc(/N=N/c2ccc(S(N)(=O)=O)cc2)cc(C(=O)[O-])c1O`, for which the pKa (acidic group) was found to be 10.2. Take `Cc1nc2c(N)cccc2[nH]1`: the pKa (acidic group) amounted to 12.3 and the pKa (basic group) worked out at 8.1. Compound `CCCNCCNCCC` registered a pKa (basic group) of 10.3. As for `c1ccc(-c2c[nH]c(-c3ccccc3)n2)cc1`, under “acidic group”, the pKa was 12.6. As for `CN=C1C(C)(C)c2ccccc2C1(C)C`, the pKa (basic group) was determined as 7. `Cc1cc(C)c(C)c(N)c1C` yielded a pKa (basic group) of 4.3. As to `CN1CCC(=O)NC1=O`, the pKa (acidic group) worked out at 11.9. Consider `COC(=O)[n+]1ccc(N)cc1`, for which, for the setting “acidic group”, the pKa is 9.15. With `O=C(O)Cn1nnnc1-c1ccccc1`, the pKa (acidic group) is 2.11. Take `COc1ccc(/C(=C\C(=O)c2ccc(S(=O)(=O)[O-])cc2)CC(=O)c2ccc(S(=O)(=O)[O-])cc2)cc1S(=O)(=O)[O-]`: the pKa (acidic group) was found to be 10.7.

Compound `c1ccc(-c2cccc(-c3cccc[nH+]3)n2)nc1` showed a pKa (basic group) of 3.28. Same read-out and setting: next, `COc1ccc(C[NH3+])cc1N`: 4.16. Regarding `COc1ccc(O)c(N)c1`, the pKa (acidic group) is 10.

`Cc1cncc(C)n1` returned a pKa (basic group) of 2.11.

`Cc1cccc(C)c1NC(=O)CN(C)C`: where the note is “basic group”, the pKa was 7.36. For `NC(=O)CCc1ccccn1`, the pKa (basic group) came out at 5.09.

As for `Nc1cc[n+]([O-])cc1`, for the setting “basic group”, the pKa was 3.61. With `CC(C)(C)N1CC(O[Si](C)(C)C)C1`, where the note is “basic group”, the pKa came out at 9.24. `Oc1cccc2c1-c1c(O)cccc1-2` registered a pKa (acidic group) of 8.16. In turn, `C/C(N)=N/N(C)C` gave a pKa (basic group) of 10. Consider `Nc1ccc(S(=O)(=O)Nc2ccc(N)nc2)cc1`, for which the pKa amounted to 8.82 (acidic group) and 4.19 (basic group). Take `CC1c2cc(O)ccc2CC1CC(=O)O` (centres undefined): the pKa (acidic group) was 5.3. `O=C(O)C12CC3CC(CC(F)(C3)C1)C2`: the pKa (acidic group) was found to be 4.22. On to `NCC(O)c1ccccc1` (centres undefined), for which the pKa (basic group) was found to be 8.94. Regarding `c1ncc(Cc2c[nH+]c[nH]2)[nH]1`, the pKa (basic group) was found to be 5.69.

Regarding `O=C(O)c1ccccc1-c1ccccc1`, the pKa (acidic group) turned out to be 3.46. With `Nc1cc[nH+]c([S-])n1`, the pKa (basic group) worked out at 3.32.

Take `CCOC(=O)c1ccccc1-n1nc(O)c(CC)c1C`: under “acidic group”, the pKa is 12.4. Where the note is “acidic group”, `NC(=O)[C@H]1CC(=O)N[C@@H]1C(=O)O` displayed a pKa of 3. `CC[NH+](CC)CCCC(C)Nc1cc[nH+]c2ccc(OC)cc12` (centres undefined) gave a pKa (basic group) of -7.83. Same read-out and setting: next, `C1CNC1`: 11.3; `C1CNCCNCCNC1`: 11.7. Where the note is “acidic group”, `COc1ccc(CC(C(C)=O)C(C)=O)cc1` displayed a pKa of 10.6. Compound `CC(C)CS(=O)O` registered a pKa (acidic group) of 2.75. Same read-out and setting: next, `O=S1(=O)N=CNc2cccnc21`: 6.94. The same measure, in the same setting: next, `COc1ccc(O)c(=O)cc1`: 7.75. As to `Cn1c(=O)[nH]c2nc[nH]c2c1=O`, the pKa amounted to 7.88 (acidic group) and 1.19 (basic group).

For the compound `CN1CCC=C(C(=O)[O-])C1`, under “basic group”, the pKa was found to be 9.07.

For the compound `O=C(O)C12CCC(O)(CC1)CC2`, the pKa (acidic group) came out at 6.33. For the compound `CCCCN1CCCCC1C` (centres undefined), the pKa (basic group) is 10.7. In turn, `CC(=O)c1cc(C(=O)C(C)(C)C)[nH]n1` came in with a pKa (acidic group) of 9.7. In the case of `Oc1c(Cl)cc(Cl)cc1C[NH+]1CCOCC1`, for the setting “acidic group”, the pKa stood at 5.67. `Nc1cccnn1` came in with a pKa (basic group) of 5.19. Turning to `C[N+](C)(O)c1ccccc1`, where the note is “acidic group”, the pKa was found to be 4.21. `COc1ccncn1` displayed a pKa (basic group) of 2.5.

For the origin of these results see the pKa sets of Baltruschat and Czodrowski (2020).
